The source of these data is BindingDB's records for doi:10.1074/jbc.M110.181594 (Institut Pasteur, 2010).

The experiment concerns the target T1, 2'-deoxynucleoside 5'-phosphate N-hydrolase 1 (Rattus norvegicus, UniProt O35820).
T1 sequence (O35820 whole entry): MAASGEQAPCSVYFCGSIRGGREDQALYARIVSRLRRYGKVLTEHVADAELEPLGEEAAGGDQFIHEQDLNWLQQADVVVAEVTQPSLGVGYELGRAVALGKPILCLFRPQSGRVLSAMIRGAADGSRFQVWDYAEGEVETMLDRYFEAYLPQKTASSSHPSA
Nature of the experiment: Inhibition Assay. An excerpt: Rcl inhibition by nucleotides.
Consider `Nc1ncnc2c1ncn2C1OC(COP(O)(O)=S)C(O)C1O` (centres undefined) [5'-AMPS], for which the affinity corresponds to a Ki of 14 µM. With `Nc1nc(=O)c2ncn(COCCOP(=O)(O)O)c2[nH]1` [Acyclovir 5'-monophosphate] the figure was 57 µM. With `O=c1[nH]c(=O)c2ncn(C3OC(COP(=O)(O)O)C(O)C3O)c2[nH]1` (centres undefined) [XMP] the figure was 54 µM; with `NC(=O)c1ncn(C2OC(COP(=O)(O)O)C(O)C2O)c1N` (centres undefined) [[5-(5-amino-4-carbamoyl-1H-imidazol-1-yl)-3,4-dihydroxyoxolan-2-yl]methyl phosphate], 52 µM.
